Data taken from US6992064B2, “N-alkylglycine trimeres capable of protecting neurons against excitotoxic aggressions and compositions containing such trimeres” (Diverdrugs, S.L., priority 2000, dated 2006).

How the values were obtained:
[1] = test system: primary cultures of rat cerebellum neurones; assay: Neuroprotection of primary cultures of rat cerebellar neurones against excitotoxic aggression (L-glutamate/glycine); format: cell-based; conditions: for decrease of neuronal death: rat cerebellar neurones, 10 μM glycine, prolonged (≧3 h) L-glutamate, read 24 hours post-aggression; for neuroprotector activity (enantiomers versus racemic mixture): primary cultures of cerebellar neurons, L-glutamate 1 mM
Source text: The neuroprotector mechanism implies, at least in part, the blocking of the glutamate ionotropic receptors, as is made manifest by the inhibition of the ionic current activated by the NMDA type of glutamatergic receptor agonist expressed in X. laevis ovocites (19,20). An important advantage of these biological tests is that they permit the search for neuroprotectors in functionally active systems, increasing the potentiality of its in vivo use.
Two complementary biological tests were used in order to evaluate the biological activity of the N-alkylglycine trimeres obtained in Example 1.1. The first evaluates the efficiency and power with which said compounds block the ionic current activated by agonists in X. laevis ovocites that express the NMDA receptor. The second, determines the neuroprotector efficiency of the N-alklyglycine trimeres in primary cultures of neurones subjected to an excitotoxic aggression, such as prolonged exposure to L-glutamate and glycine.
It was also observed that the N-alkylglycine trimeres tested protected primary neuronal cultures coming from the cerebellum of rats pre-exposed to 10 μM glycine versus the prolonged exposure (≧3 h) of L-glutamate or N-methyl-D-aspartate at a concentration of […]. The test consists of extracting the cerebellar neurones of baby rats, 7–8 days old, cultivating them in plates in a culture medium supplemented with bovine foetal serum (22). After 13–19 days under culture, the excitotoxic aggression with L-glutamate is performed, monitoring the neuronal death in the absence and presence of the N-alkylglycine trimeres 24 hours post-aggression using two fluorescent dyes: the fluorescent diacetate that indicates the number of viable cells, and the propydium iodine that informs of the number of dead cells (23). As an example, the N-alkylglycine trimere identified as compound [1] decreased a 95% of the neuronal death at a concentration of 30 μg/ml; compound [5] an 85% at 30 μg/ml; compound [23a] a 57% at a concentration of 50 μg/ml, and compound [24] a 60% at 50 μg/ml.
On the other hand, due to the fact that some formula I N-alkylglycine trimeres may be presented as stereoisomers, the possibility that the neuroprotector activity of the racemic mixture preferably corresponded to one of the isomers, was evaluated. For this, the neuroprotector activity of the enantiomers identified as [23b] and [23c] was evaluated, (see Table 1) in primary cultures of cerebellar neurons exposed to excitotoxic aggression, such as the incubation with L-glutamate 1 mM comparing it with the neuroprotector activity of a racemic mixture of said enantiomers. […] Likewise, said power was similar to the one presented by the racemic mixture.

[2] = test system: ammonium-induced neurotoxicity in mice; assay: Neurotoxicity model in mice induced by injection of high doses of ammonium (death due to NMDA receptor hyperactivation); format: in vivo; conditions: 0.05–0.1 mg/g intraperitoneal, 10 minutes before 12 mmol/kg ammonium acetate; 24 hours post-injection
Protocol: A neurotoxicity model was used on mice induced by the injection of high doses of ammonium, the result of which is the death of the animal due to the hyperactivation of the NMDA receptor. The test consists in the intraperitoneal injection in mice of an amount of N-alkylglycine trimere of 0.05–0.1 mg/g, followed, after 10 minutes, with an injection of 12 mmol/kg of ammonium acetate. After 24 hours post-injection, the number of dead mice was determined. The N-alkylglycine trimere identified as compound [24] protected 82% of the mice, whilst the N-alkylglycine trimere identified as compound [23a] protected 100% of the animals.

## CCC(C)N(CC(N)=O)C(=O)CN(C(=O)CNCCN1CCCC1)C1CC1 (racemic) [compound [23a], [N-[2-(N-pyrrolidinyl)ethyl]glycyl]-[N-(cyclopropyl)glycyl]-N-((R,S)-sec-butyl)glycinamide]
[1]; 50 μg/ml
  decrease of neuronal death: 57%
[2]
  mice protected from death: 100%

## CC[C@@H](C)NC(=O)CN(C(=O)CNCCN1CCCC1)C(=O)CNC1CC1 [[23b], [N-[2-(N-pyrrolidinyl)ethyl]glycyl]-[N-(cyclopropyl)glycyl]-N-((R)-sec-butyl)glycinamide]
[1]
  neuroprotector activity (enantiomers versus racemic mixture): neuroprotectors with equal power

## CC[C@H](C)NC(=O)CN(C(=O)CNCCN1CCCC1)C(=O)CNC1CC1 [[23c], [N-[2-(N-pyrrolidinyl)ethyl]glycyl]-[N-(cyclopropyl)glycyl]-N-((S)-sec-butyl)glycinamide]
[1]
  neuroprotector activity (enantiomers versus racemic mixture): neuroprotectors with equal power

## CCN(CC)CCCN(CC(=O)N(CCNC(C)=O)CC(N)=O)C(=O)CNCCC(c1ccccc1)c1ccccc1 [compound [1]] [[N-[3,3-diphenylpropyl]glycyl]-[N-[3-(N,N-diethylamine)propyl]glycyl]-N-[2-(methylcarbonylamine)ethyl]glycinamide]
[1]; 30 μg/ml
  decrease of neuronal death: 95%

## CCN(CC)CCCN(CC(=O)N(CCNC(C)=O)CC(N)=O)C(=O)CNCCC(c1ccccc1)c1ccccc1 [compound [5]] [[N-[3,3-diphenylpropyl]glycyl]-[N-[3-N,N-diethylamine)propyl]glycyl]-N-[2-(methylcarbonylamine)ethyl]glycinamide]
[1]; 30 μg/ml
  decrease of neuronal death: 85%
